Assay results taken from article PMC12040169 (PLOS Biology, 2025).

Assay: in vitro
Conditions: human, hela cells

Work on `CNC(=O)Oc1ccccc1/C=N/N(C)C` [CBK023194] yielded a viability at 28.5 h, 10 µM of 97.5%.

Same assay, conditions: human, hela cells, % viability

Going from `C=C(C)Cn1c(SCC(C)C)nnc1-c1ccccc1C(=O)NC(C)C` [CBK200096] to `Cc1ccccc1OC(C)C(=O)Nn1cnnc1` (stereo not shown) [CBK268619], the viability at 28.5 h, 10 µM rises from 87.8% to 96.2%.

First: CN1CCN(C(=O)CCn2c(C(F)F)cc3cccnc32)CC1 [CBK285023]
Second: CN1CCN(C(=O)Cn2c(-c3cccs3)cc3cccnc32)CC1 [CBK282558]
The viability at 28.5 h, 10 µM of the first is higher: 101% for the first, 97% for the second.

First: NCc1ccc(CN(Cc2ccc(-c3ccccc3)cc2)C(=O)Nc2c(F)cccc2F)cc1 [CBK046115C]
Second: COc1ccccc1-c1ccccc1CC1(C(=O)NCc2ccc(F)cc2)CCOCC1 [CBK286425]
The viability at 28.5 h, 10 µM of the first is higher: 104% for the first, 90% for the second.

Going from `O=C(CSc1nnc(-c2ccccc2)n1-c1ccccc1)N/N=C/c1cccc2cccnc12` [CBK262863] to `OCCn1c(COc2cccc3cccnc23)nc2ccccc21` [CBK269942], the viability at 28.5 h, 10 µM falls from 91% to 79.5%.

Going from `CNC(=O)C1(Cc2ccccc2-c2cccs2)CCN(C(=O)CCc2ccccc2)CC1` [CBK285900] to `O=C(OCc1ccccc1)N1CCC2(CC1)CN(CCO)c1ccccc12` [CBK022627], the viability at 28.5 h, 10 µM falls from 108% to 105%.

Compared with `CCOC(=O)N/N=C1\CCCCC1CC` (stereo not shown) [CBK016112], `CC(=O)NC(c1nccs1)C1CCCN(C(=O)C2CCCC2)C1` (stereo not shown) [CBK284966] is higher in viability at 28.5 h, 10 µM: 84.7% for the first, 101% for the second.

Going from `CC(=O)N1CCC[C@H]2NC(=O)CNC(=O)C3(C/C=C/C[C@H]21)CCNCC3` [CBK292173] to `COC(C)(C)C(=O)N1CCC2(C/C=C/Cc3ccccc3OCC(=O)NCCNC2=O)CC1` [CBK292001], the viability at 28.5 h, 10 µM rises from 89.8% to 105%.

Compared with `Cc1nc(N2CCN(C)CC2)ncc1C(=O)NCCSc1cnn[nH]1` [CBK306623], `CC(=O)Nc1cccc(-c2cn3ccnc3c(N3CCN(C)CC3)n2)c1` [CBK037930] is higher in viability at 28.5 h, 10 µM: 88.2% for the first, 95.2% for the second.

Going from `COc1ccc(Cn2c(=O)[nH]n(-c3ccccc3)c2=O)cc1F` [CBK122772] to `Cc1ccc(-n2cc(-c3ccccc3)[nH]c2=O)cc1` [CBK288103], the viability at 28.5 h, 10 µM rises from 86.5% to 101%.

First: COc1ccc2[nH]cc(CC(=O)N3CCCC4(CCN(Cc5ccccc5)C4)C3)c2c1 (stereo not shown) [CBK136883]
Second: COc1ccccc1CC(=O)N1CCCC1c1nc2ccccc2[nH]1 (stereo not shown) [CBK285517]
The viability at 28.5 h, 10 µM of the first is lower: 93.5% for the first, 94.6% for the second.

First: O=C(c1ccccc1)c1ccc2n1CCC2C(=O)Nc1ccccc1F (stereo not shown) [CBK300530]
Second: CC(N)C(=O)Nc1ccccc1-c1ccccc1 (stereo not shown) [CBK267700]
The viability at 28.5 h, 10 µM of the first is lower: 90.5% for the first, 98.7% for the second.

First: CCN1CCN(Cc2c(C(C)(C)C)[nH]c3ncccc23)CC1 [CBK285341]
Second: O=C(Cn1cnnn1)N1CCN(Cc2ccccc2)CC1 [CBK026053]
The viability at 28.5 h, 10 µM of the first is higher: 106% for the first, 85.5% for the second.

Going from `O=C(NC(Cc1cnc[nH]1)C(=O)O)c1ccccc1` (stereo not shown) [CBK059018] to `CC(CCc1ccccc1)NC(=O)c1ccccc1C(=O)O` (stereo not shown) [CBK286940], the viability at 28.5 h, 10 µM falls from 102% to 94.5%.

First: Cc1ccc(NC(=O)CCCn2cc([N+](=O)[O-])cn2)cc1Cl [CBK268485]
Second: NC(=O)c1ccccc1NC(=O)CCSc1ccc([N+](=O)[O-])cc1Cl [CBK266396]
The viability at 28.5 h, 10 µM of the first is lower: 76.6% for the first, 80.1% for the second.

First: COCC(=O)Nc1ccc(N2CCCC2=O)c(Cl)c1 [CBK256871]
Second: C[C@@H](Cn1nc2c(cc1=O)CCCC2)NC(=O)c1cccc(F)c1 [CBK284561]
The viability at 28.5 h, 10 µM of the first is higher: 106% for the first, 87.5% for the second.

Going from `N#Cc1ccccc1COC(=O)c1cc(-c2ccc(/C=C/c3nc(O)c([N+](=O)[O-])c(=O)[nH]3)o2)ccc1Cl` [CBK269115] to `Cn1c2ccccc2n2c(SCc3nc4ccc([N+](=O)[O-])cc4[nH]3)nnc12` [CBK266853], the viability at 28.5 h, 10 µM falls from 101% to 88.6%.

First: O=C(CNCc1ccc2c(c1)OCO2)NCc1ccc2c(c1)OCO2 [CBK074763]
Second: CC(C)(C)OC(=O)NCc1ccc(CNCc2cccc(Cl)c2)cc1 [CBK056704]
The viability at 28.5 h, 10 µM of the first is lower: 86.8% for the first, 108% for the second.

Compared with `CCC(C)(C)c1ccc(S(=O)(=O)Nc2ccc(F)cc2F)cc1` [CBK200039], `O=S(=O)(Nc1nnc(C(F)(F)F)s1)c1ccc(F)cc1` [CBK026663] is lower in viability at 28.5 h, 10 µM: 95.7% for the first, 91.4% for the second.

First: COCC1CCCN1C(=O)c1cnn2c(C)c(Cc3ccccc3)c(C)nc12 (stereo not shown) [CBK162213]
Second: CCOc1ccccc1C(=O)N1CCCCC1c1ncc(C(=O)Nc2ccccc2)c(C)n1 (stereo not shown) [CBK285840]
The viability at 28.5 h, 10 µM of the first is lower: 93.9% for the first, 103% for the second.

Going from `CCC12CN3CC(CC)(CN(C1)C3c1c(C)[nH]c3ccccc13)C2=O` (stereo not shown) [CBK265547] to `c1ccc(CNC2CCc3[nH]c4ccccc4c3C2)cc1` (stereo not shown) [CBK091587T], the viability at 28.5 h, 10 µM rises from 89.4% to 106%.

Going from `CCOC(=O)N(C)c1c(CC)nc2c(OCC(=O)C(C)(C)C)cccn12` [CBK147382] to `CCCCC(=O)N(C)c1c(C)nc2ccc(C(=O)Nc3ccc(C(N)=O)cc3)cn12` [CBK147066], the viability at 28.5 h, 10 µM rises from 94.2% to 94.5%.

Compared with `CCN(CC(=O)NC(C)(C)C)S(=O)(=O)c1cccc(C#N)c1` [CBK306087], `Cc1c(NC(=O)CN(c2ccccc2)S(=O)(=O)N(C)C)cccc1[N+](=O)[O-]` [CBK269012] is lower in viability at 28.5 h, 10 µM: 114% for the first, 106% for the second.

Going from `CCOC(=O)N1CCN(S(=O)(=O)c2cc(C(=O)O)c(Cl)cc2Cl)CC1` [CBK296975] to `Cc1ccc(NS(=O)(=O)c2cc(C(=O)N3CCN(C)CC3)ccc2C)cc1C` [CBK269268], the viability at 28.5 h, 10 µM falls from 96.2% to 91.2%.

Going from `O=C(O)C1CCCCN1S(=O)(=O)c1ccc(Cl)cc1` (stereo not shown) [CBK077418] to `COC(=O)CCc1ccc(S(=O)(=O)N2CCCN(Cc3cc(F)c(F)c(F)c3)CC2)cc1` [CBK062998], the viability at 28.5 h, 10 µM rises from 91.6% to 103%.

First: NS(=O)(=O)c1ccc(Cl)c(Cl)c1 [CBK015652]
Second: NS(=O)(=O)c1ccc(NC(=O)CSc2cccc3ccccc23)cc1 [CBK268987]
The viability at 28.5 h, 10 µM of the first is higher: 118% for the first, 93.2% for the second.

Compared with `CCCC(C(=O)O)C(C)CC(=O)Nc1ccccc1Cl` (stereo not shown) [CBK286927], `CC(C)N(Cc1nc(-c2ccccc2)no1)C(=O)Nc1cccc(Cl)c1` [CBK269871] is lower in viability at 28.5 h, 10 µM: 99.1% for the first, 93.5% for the second.

First: O=C(Cn1ccc(=O)[nH]c1=O)NCc1cccnc1OCC(F)(F)F [CBK304565]
Second: C=CCNC(=O)Cn1c(-c2ccco2)cc2cccnc21 [CBK282719]
The viability at 28.5 h, 10 µM of the first is higher: 90.5% for the first, 82.6% for the second.

Compared with `Cc1cc(C)c2[nH]c(C(=O)NCc3c(C)n[nH]c3C)c(C)c2c1` [CBK283254], `COc1ccc2[nH]nc(CN3CCCC(c4cc(O)nc(C)n4)C3)c2c1` (stereo not shown) [CBK306703] is higher in viability at 28.5 h, 10 µM: 87.4% for the first, 87.6% for the second.

Compared with `CC(C)(C)C(=O)N1CCC(c2nnc(-c3ccsc3)o2)CC1` [CBK283378], `O=C(Cc1ccc(F)cc1Cl)N1CCn2c(nnc2C2CC2)C1` [CBK283773] is lower in viability at 28.5 h, 10 µM: 89.5% for the first, 87.8% for the second.

Going from `CCn1cc(CN(CCCn2ccnc2)Cc2cccc(F)c2)cn1` [CBK283124] to `CCOc1ccc(NC(=O)N(CCO)Cc2nccn2C)cc1C#N` [CBK307634], the viability at 28.5 h, 10 µM falls from 107% to 82.6%.

First: Cn1nc(C(=O)NCC2(c3cccc(F)c3)CCCC2)ccc1=O [CBK281437]
Second: CC(=O)NC1CCN(CC2(c3ccc(F)cc3)CCCC2)CC1 [CBK283327]
The viability at 28.5 h, 10 µM of the first is lower: 86.9% for the first, 89% for the second.

First: c1cnn(CC2CCCN2c2ncnc3sc4c(c23)CCNC4)c1 (stereo not shown) [CBK307490]
Second: O=C(CSc1nccn1C1CC1)Nc1ccc(CN2CCOCC2)cc1 [CBK306071]
The viability at 28.5 h, 10 µM of the first is lower: 85.9% for the first, 98.9% for the second.

Compared with `CCOc1ccc(Cl)cc1CN(C)C(=O)NCC(c1ccco1)N(C)C` (stereo not shown) [CBK307013], `Cc1c(C(=O)N(C(C)C)C2CC2)nnn1-c1ccc2ncccc2c1` [CBK305518] is higher in viability at 28.5 h, 10 µM: 88% for the first, 92.5% for the second.

First: CC1(C)NC(=O)N(CCCC(=O)NCc2coc(-c3cccs3)n2)C1=O [CBK237157]
Second: CCCc1nn(CC(=O)N(CC)CC)c(=O)c2cc3ccsc3n12 [CBK284192]
The viability at 28.5 h, 10 µM of the first is higher: 105% for the first, 81.3% for the second.

Compared with `O=C(c1ccco1)N1CCN(c2cncc(-c3ccc4ccccc4c3)n2)CC1` [CBK065184], `O=C1NC2(CCCN(C(=O)c3ccco3)C2)Oc2ccccc21` (stereo not shown) [CBK284800] is higher in viability at 28.5 h, 10 µM: 89% for the first, 99.8% for the second.

Compared with `O=C1CC2(CCN(C(=O)c3ccncc3)CC2)Oc2c(Br)cc(Br)cc21` [CBK156437], `O=C1Nc2cc(Cl)ccc2C(=O)N2CC[C@H](NC(=O)N3CCOCC3)[C@@H]12` [CBK289340] is lower in viability at 28.5 h, 10 µM: 95.7% for the first, 87.7% for the second.

First: O=C(N/N=C/c1c(O)ccc2ccccc12)c1cnccn1 [CBK262400]
Second: CN(CC(=O)O/N=C(\N)c1cccnc1)S(=O)(=O)c1ccccc1 [CBK267684]
The viability at 28.5 h, 10 µM of the first is higher: 105% for the first, 94.3% for the second.

Going from `OCCNc1cncc(-c2ccccc2)n1` [CBK065857] to `O=C(NCCNc1cnccn1)c1cc(F)cc(Br)c1` [CBK304554], the viability at 28.5 h, 10 µM rises from 92% to 99.6%.

Going from `c1cnc(N2CCN(Cc3ccc4c(c3)OCO4)CC2)c(OCCN2CCOCC2)n1` [CBK082894T] to `Cc1ccc(Nc2nc(N3CCOCC3)nc(N3CCOCC3)n2)cc1` [CBK287732], the viability at 28.5 h, 10 µM rises from 87.8% to 118%.

First: O=C(c1ccc(N2CCN(C3CC(=O)N(Cc4cccs4)C3=O)CC2)cc1)c1cccnc1 (stereo not shown) [CBK269040]
Second: O=C(CN1CCN(c2ccc(C(F)(F)F)cn2)CC1)c1ccccc1 [CBK074699]
The viability at 28.5 h, 10 µM of the first is lower: 98.5% for the first, 111% for the second.

Compared with `Cn1nc2n(C)c(=O)c3ccc(C(=O)NC4CCCC4)cc3n2c1=O` [CBK287811], `Cc1nc(C)n(CC(=O)N[C@H]2C3CCCCC3[C@@H]2c2ccccc2)n1` (stereo partly shown) [CBK285128] is lower in viability at 28.5 h, 10 µM: 113% for the first, 94.7% for the second.

First: CC(C)(C)c1cc(C[C@H]2CNCC[C@H]2CC(=O)N2CCN(c3ccc(F)cc3)CC2)no1 [CBK288800]
Second: C/C(CCS(=O)(=O)c1ccc(Br)cc1)=N\NC(N)=S [CBK261370]
The viability at 28.5 h, 10 µM of the first is lower: 94.8% for the first, 102% for the second.

For `O=C(NCC(O)c1ccc(O)cc1)c1cnc(-c2ccc(Cl)cc2)c(-c2cccnc2)c1` (stereo not shown) [CBK036656], the viability at 28.5 h, 10 µM was 92.5%.

Same assay, conditions: human, hela cells, % viability, bulk resorufin, single well

First: O=C(N/N=C1/CN2CCC1CC2)c1cccc(O)c1 [CBK262188C]
Second: Cc1ccc(Cn2nc(C(=O)NCCc3c[nH]c4ccccc34)c3ccccc32)cc1 [CBK047830]
The viability at 28.5 h, 10 µM of the first is lower: 93.5% for the first, 98.7% for the second.
